According to US20230322723A1, “COMPOUNDS FOR SUPPRESSING EGFR MUTANT CANCER AND PHARMACEUTICAL USE THEREOF” (J2H BIOTECH INC., priority 2020, published 2023):

Columns and labels:
EGFR^L858R+T790M+C797S = molecular target: T1, EGFR^L858R+T790M+C797S (Homo sapiens, UniProt P00533, C797S/L858R/T790M); assay: EGFR protein degradation test (Western blot) in Ba/F3 cells expressing mutant EGFR L858R+T790M+C797S (LTC); assay type: cell-based; details: compounds at 0.1 μM and 1 μM, 24 hours, Western blot with EGFR antibody
T1 construct: expressed in transfected cells; host or cells: Ba/F3
T1 sequence (P00533 25-1210 T790M/C797S/L858R): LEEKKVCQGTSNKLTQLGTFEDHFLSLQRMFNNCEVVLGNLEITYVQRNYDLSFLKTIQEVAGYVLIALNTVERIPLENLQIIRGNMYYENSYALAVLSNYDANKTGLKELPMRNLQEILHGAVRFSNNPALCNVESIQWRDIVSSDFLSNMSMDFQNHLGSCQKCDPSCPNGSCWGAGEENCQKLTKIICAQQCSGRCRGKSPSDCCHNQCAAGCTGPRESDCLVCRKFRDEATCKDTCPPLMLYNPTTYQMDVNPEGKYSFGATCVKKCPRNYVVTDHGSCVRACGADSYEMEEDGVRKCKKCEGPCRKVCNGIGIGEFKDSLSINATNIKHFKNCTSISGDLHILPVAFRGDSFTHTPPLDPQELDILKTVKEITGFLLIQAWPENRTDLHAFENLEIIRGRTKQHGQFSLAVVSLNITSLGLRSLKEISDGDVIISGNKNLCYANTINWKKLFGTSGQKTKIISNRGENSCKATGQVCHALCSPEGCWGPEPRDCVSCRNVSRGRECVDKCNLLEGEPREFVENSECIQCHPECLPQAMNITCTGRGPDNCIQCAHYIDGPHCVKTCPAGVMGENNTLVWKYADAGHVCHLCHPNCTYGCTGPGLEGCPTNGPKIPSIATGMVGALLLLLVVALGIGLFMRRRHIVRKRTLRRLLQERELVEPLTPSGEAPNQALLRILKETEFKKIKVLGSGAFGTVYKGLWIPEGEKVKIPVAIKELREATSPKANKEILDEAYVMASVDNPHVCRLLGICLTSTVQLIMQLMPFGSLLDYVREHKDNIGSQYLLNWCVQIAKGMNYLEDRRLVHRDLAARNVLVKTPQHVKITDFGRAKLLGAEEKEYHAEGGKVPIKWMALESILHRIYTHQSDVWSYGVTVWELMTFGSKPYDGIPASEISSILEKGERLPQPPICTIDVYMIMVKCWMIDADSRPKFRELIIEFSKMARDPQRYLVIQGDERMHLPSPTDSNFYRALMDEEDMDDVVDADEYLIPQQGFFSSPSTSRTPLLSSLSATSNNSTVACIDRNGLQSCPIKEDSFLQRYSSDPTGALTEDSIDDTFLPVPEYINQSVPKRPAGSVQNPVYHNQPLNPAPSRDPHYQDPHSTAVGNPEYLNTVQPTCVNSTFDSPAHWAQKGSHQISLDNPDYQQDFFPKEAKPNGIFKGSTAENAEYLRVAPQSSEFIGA
Procedure, shortened: (§1)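 Ba/F3 cells expressing wild-type EGFR, del19+T790M+C797S or L858R+T790M+C797S EGFR were treated with compound at 0.1 μM and 1 μM for 24 h. Lysates (30 μg) were analysed by SDS-PAGE and EGFR Western blot, with bands quantified densitometrically.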

EGFR^del19+T790M+C797S = assay: EGFR protein degradation test (Western blot) in Ba/F3 cells expressing mutant EGFR del19+T790M+C797S (DTC); assay type: cell-based; details: compounds at 0.1 μM and 1 μM, 24 hours, Western blot with EGFR antibody
Procedure, shortened: as §1

[1] = Pharmacokinetic evaluation after single oral administration to ICR mice; assay type: in vivo; details: for half-life / AUC(0-t): mouse, ICR mice, single oral dose 5 mg/kg, plasma; for AUC(0-t): read-out: AUC0-24
Procedure: Pharmacokinetic tests for the compounds of the present invention were conducted as below. After a single oral administration of the compound of the present invention to ICR mice, the concentration of the compound over time was followed up and analyzed.
The compound of the present invention was suspended in 10% DMSO/90% (30% HPbCD aqueous solution) and orally administered to mice at a dose of 5 mg/kg. Blood was collected at a fixed time and plasma was separated. Drug analysis was performed using HPLC (XBridge column C18, Waters, mobile phase 0.1% formic acid:acetonitrile (30:70, %/%)) and MS/MS (ESI positive, MRM). Mouse blood plasma and each commercially available standard solution were mixed at a ratio of 9:1 to prepare and calibrate at concentrations of […] 5,000 ng/mL. In addition, the preparation of QC samples was prepared by mixing the mouse blood plasma and the standard solution for QC at a ratio of 9:1, and prepared to be concentrations of 100, 750 and 2,500 ng/mL. 100 μL of the plasma sample was transferred to a centrifugation tube, and 10 μL of the internal standard solution and 300 μL of methanol were added, followed by mixing for about 30 seconds for pretreatment. The tube was centrifuged at 3,000×g (4° C.) for about 5 minutes, and the supernatant was taken and transferred to an LC vial and injected into the instrument. Then, the concentration of the compound in mouse plasma was quantified by applying a previously validated assay. For pharmacokinetic parameters, the program WinNonlin 5.2 (Pharsight, USA) was used. AUC0-t, AUC0-∞, Cmax, Tmax, and t1/2 were calculated by Noncompartment modeling (best fit). The pharmacokinetic parameter results were expressed as the mean (Mean) and standard deviation (SD), and were statistically processed using the SPSS program (Statistical Package for the Social Sciences, 10.0K, USA).

[2] = 69, 70, 75, 78, 82 vs compounds 53 and 65

SMILES	LTC (EGFR^L858R+T790M+C797S) protein degradation (EGFR^L858R+T790M+C797S)	DTC (EGFR^del19+T790M+C797S) protein degradation (EGFR^del19+T790M+C797S)	half-life [1] [h]	AUC(0-t) [1] [ng·h/mL]	AUC compared to the corresponding compounds [1, 2]	AUC compared to the corresponding compounds ([1]; 74, 76, 77, 80, 81 vs 45, 71, 51, 65, 53)
COc1cc(N2CCC(N3CCN(CC(=O)Nc4ccc5c(c4)CN(C4CCC(=O)NC4=O)C5=O)CC3)CC2)ccc1Nc1ncc(Cl)c(Nc2ccccc2N(C)S(C)(=O)=O)n1 (centres unmarked) [Compound 47, 2-(4-(1-(4-((5-chloro-4-((2-(N-methylmethylsulfonamido)phenyl)amino)pyrimidin-2-yl)amino)-3-methoxyphenyl)piperidin-4-yl)piperazin-1-yl)-N-(2-(2,6-dioxopiperidin-3-yl)-1-oxoisoindolin-5-yl)acetamide]	++ (Protein degradation > 80%)	++ (Protein degradation > 80%)	4.13	134	–	–
COc1cc(N2CCC(N3CCN(CCC4CCN(c5ccc6c(c5)C(=O)N(C5CCC(=O)NC5=O)C6=O)CC4)CC3)CC2)ccc1Nc1ncc(Cl)c(Nc2ccccc2N(C)S(C)(=O)=O)n1 (centres unmarked) [Compound 51, N-(2-((5-chloro-2-((4-(4-(4-(2-(1-(2-(2,6-dioxopiperidin-3-yl)-1,3-dioxoisoindolin-5-yl)piperidin-4-yl)ethyl)piperazin-1-yl)piperidin-1-yl)-2-methoxyphenyl)amino)pyrimidin-4-yl)amino)phenyl)-N-methylmethanesulfonamide]	++ (Protein degradation > 80%)	++ (Protein degradation > 80%)	2.81	635	–	–
COc1cc(N2CCN(CC3CCN(C(=O)COc4cccc5c4C(=O)N(C4CCC(=O)NC4=O)C5=O)CC3)CC2)ccc1Nc1ncc(Cl)c(Nc2ccccc2N(C)S(C)(=O)=O)n1 (centres unmarked) [Compound 53, N-(2-((5-chloro-2-((4-(4-((1-(2-((2-(2,6-dioxopiperidin-3-yl)-1,3-dioxoisoindolin-4-yl)oxy)acetyl)piperidin-4-yl)methyl)piperazin-1-yl)-2-methoxyphenyl)amino)pyrimidin-4-yl)amino)phenyl)-N-methylmethanesulfonamide]	++ (Protein degradation > 80%)	++ (Protein degradation > 80%)	3.65	44	–	–
COc1cc(N2CCN(CC3CCN(C(=O)CCc4cccc5c4C(=O)N(C4CCC(=O)NC4=O)C5=O)CC3)CC2)ccc1Nc1ncc(Cl)c(Nc2ccccc2N(C)S(C)(=O)=O)n1 (centres unmarked) [Compound 54, N-(2-((5-chloro-2-((4-(4-((1-(3-(2-(2,6-dioxopiperidin-3-yl)-1,3-dioxoisoindolin-4-yl)propanoyl)piperidin-4-yl)methyl)piperazin-1-yl)-2-methoxyphenyl)amino)pyrimidin-4-yl)amino)phenyl)-N-methylmethanesulfonamide]	++ (Protein degradation > 80%)	++ (Protein degradation > 80%)	6.12	840	–	–
COc1cc(N2CCN(CC3CCN(C(=O)CNc4cccc5c4C(=O)N(C4CCC(=O)NC4=O)C5=O)CC3)CC2)ccc1Nc1ncc(Cl)c(Nc2ccccc2N(C)S(C)(=O)=O)n1 (centres unmarked) [Compound 65, N-(2-((5-chloro-2-((4-(4-((1-((2-(2,6-dioxopiperidin-3-yl)-1,3-dioxoisoindolin-4-yl)glycyl)piperidin-4-yl)methyl)piperazin-1-yl)-2-methoxyphenyl)amino)pyrimidin-4-yl)amino)phenyl)-N-methylmethanesulfonamide]	++ (Protein degradation > 80%)	++ (Protein degradation > 80%)	4.01	607	–	–
COc1cc(N2CCN(CC3CCN(C(=O)[C@@H](C)Oc4cccc5c4C(=O)N(C4CCC(=O)NC4=O)C5=O)CC3)CC2)ccc1Nc1ncc(Cl)c(Nc2ccccc2N(C)S(C)(=O)=O)n1 (some centres unmarked) [Compound 69]	++ (Protein degradation > 80%)	++ (Protein degradation > 80%)	3.22	280	significantly improved AUC	–
COc1cc(N2CCN(CC3CCN(C(=O)[C@H](C)Nc4cccc5c4C(=O)N(C4CCC(=O)NC4=O)C5=O)CC3)CC2)ccc1Nc1ncc(Cl)c(Nc2ccccc2N(C)S(C)(=O)=O)n1 (stereo partly drawn) [Compound 70, N-(2-((5-chloro-2-((4-(4-((1-((2-(2,6-dioxopiperidin-3-yl)-1,3-dioxoisoindolin-4-yl)-L-alanyl)piperidin-4-yl)methyl)piperazin-1-yl)-2-methoxyphenyl)amino)pyrimidin-4-yl)amino)phenyl)-N-methylmethanesulfonamide]	++ (Protein degradation > 80%)	++ (Protein degradation > 80%)	3.07	598	significantly improved AUC	–
COc1cc(N2CCC(N3CCN(CC4CCN(c5ccc6c(c5)C(=O)N(C5CCC(=O)NC5=O)C6=O)CC4)CC3)CC2)ccc1Nc1ncc(Cl)c(Nc2ccccc2N(C)S(C)(=O)=O)n1 (centres unmarked) [Compound 71, N-(2-((5-chloro-2-((4-(4-(4-((1-(2-(2,6-dioxopiperidin-3-yl)-1,3-dioxoisoindolin-5-yl)piperidin-4-yl)methyl)piperazin-1-yl)piperidin-1-yl)-2-methoxyphenyl)amino)pyrimidin-4-yl)amino)phenyl)-N-methylmethanesulfonamide]	++ (Protein degradation > 80%)	+ (Protein degradation 20~80%)	7.77	1230	–	–
COc1cc(N2CCC(N3CCN(CCNc4cccc5c4C(=O)N(C4CCC(=O)NC4=O)C5=O)CC3)CC2)c(C)cc1Nc1ncc(Cl)c(Nc2ccccc2N(C)S(C)(=O)=O)n1 (centres unmarked) [Compound 74, N-(2-((5-chloro-2-((4-(4-(4-(2-((2-(2,6-dioxopiperidin-3-yl)-1,3-dioxoisoindolin-4-yl)amino)ethyl)piperazin-1-yl)piperidin-1-yl)-2-methoxy-5-methylphenyl)amino)pyrimidin-4-yl)amino)phenyl)-N-methylmethanesulfonamide]	++ (Protein degradation > 80%)	− (Protein degradation < 20%)	4.44	5520	–	significantly improved AUC
COc1cc(N2CCN(CC3CCN(C(=O)[C@H](C)Nc4cccc5c4C(=O)N(C4CCC(=O)NC4=O)C5=O)CC3)CC2)c(C)cc1Nc1ncc(Cl)c(Nc2ccccc2N(C)S(C)(=O)=O)n1 (stereo partly drawn) [Compound 75, N-(2-((5-chloro-2-((4-(4-((1-((2-(2,6-dioxopiperidin-3-yl)-1,3-dioxoisoindolin-4-yl)-L-alanyl)piperidin-4-yl)methyl)piperazin-1-yl)-2-methoxy-5-methylphenyl)amino)pyrimidin-4-yl)amino)phenyl)-N-methylmethanesulfonamide]	++ (Protein degradation > 80%)	++ (Protein degradation > 80%)	2.82	2040	significantly improved AUC	–
